Values joined by “and” are separate entries in the source; they are usually repeats but may differ in a detail not shown here. Identical values can stand only once.
Experiments:
[1] = test system: HepG2 cells; assay: Carbon tetrachloride (CCl4)-induced in vitro hepatocyte injury, MTT; format: cell-based, human; conditions: HepG2, 10 μM; for Cell survival rate increase (%): 0.6% CCl4, versus model group
Method: Human liver cancer HepG2 cells well retained the characteristics of normal human hepatocytes, and they were grown in a DMEM medium containing 10% of fetal calf cerium (containing 100 U/mL of penicillin and 100 μg/mL of streptomycin) at the culturing conditions: 37° C., 5% of CO2 and a saturated humidity. A solution containing 0.25% of trypsin and 0.02% of EDTA was used for digestions and passages.
A MTT method was adopted. The HepG2 cells were inoculated in a 96-well cell culture plate, and after 24 hour cultures, the (+)IMM-H014, the (−)IMM-H014 and the (±)IMM-H014 were added in a non-toxic concentration whilst the carbon tetrachloride (CCl4, a final concentration of 0.6%) was added thereto. A Bicyclol positive control group, a solvent control group and a model group were set for the experiment. They acted on the cells continuously for 24 h. The culture solution was discarded, and to each well, 100 μL of a MTT (0.5 mg/mL) solution was added to culture for 4 hours. The MTT solution was discarded, and to each well, 150 μL of DMSO was added. The mixture was oscillated by a mixing oscillator, and the absorbance value was measured at a wavelength of 570 nm in a microplate reader. Cell survival rate (%)=(OD mean of administration group/OD mean of solvent control group)×100%.
(§1) The data were presented as a number mean±standard deviation (x±SD).

[2] = test system: HepG2 cells; assay: 4-Acetamidophenol (APAP)-induced in vitro hepatocyte injury, MTT and LDH; format: cell-based, human; conditions: 8 mM APAP; for LDH level in the cell culture supernatant: HepG2, 10 uM, 24 h (the FIGURE); for Survival rates (%) / OD Mean ± SD / Cell survival rate increase (%): HepG2, 10 μM; for Survival rates (%) / OD Mean ± SD: 24 h, MTT; for OD Mean ± SD: 570 nm; for Cell survival rate increase (%): versus model group
Method: Human liver cancer HepG2 cell well retained the characteristics of normal human hepatocytes, and they were grown in a DMEM medium containing 10% of fetal calf cerium (containing 100 U/mL of penicillin and 100 μg/mL of streptomycin) at the culturing conditions: 37° C., 5% of CO2 and a saturated humidity. A solution containing 0.25% of trypsin and 0.02% of EDTA was used for digestions and passages.
A MTT method was adopted. The HepG2 cells were inoculated in a 96-well cell culture plate, and after 24 hour cultures, the (+)IMM-H014, the (−)IMM-H014 and the (±)IMM-H014 were added in a non-toxic concentration whilst the 4-acetamidophenol (APAP, a final concentration of 8 mM) was added thereto. A Bicyclol positive control group, a solvent control group and a model group were set for the experiment. The culture was continued for 24 h. 100 μL of the culture solution was taken and centrifuged, and a full-automatic biochemical analyzer in a LDH detection kit was utilized to detect the LDH level therein. The remaining culture solution was discarded, and to each well, 100 μL of a MTT (0.5 mg/mL) solution was added to continue the culture for 4 hours. The MTT solution was discarded, and to each well, 150 μL of DMSO was added. The mixture was oscillated by a mixing oscillator, and the absorbance value was measured at a wavelength of 570 nm in a microplate reader. Cell survival rate (%)=(OD mean of administration group/OD mean of solvent control group)×100%.
as §1

[3] = test system: ethionine-induced non-alcoholic fatty liver; assay: Ethionine-induced mouse non-alcoholic fatty liver model; format: in vivo; conditions: for TC (mmol/gprot): mouse liver tissue cholesterol; for TC (mmol/gprot) / TG (mmol/gprot): 200 mg/kg intragastric once a day x3, 250 mg/kg ethionine; for TG (mmol/gprot): mouse liver tissue triglyceride; for Percent TG reduction (%) / TC reduction percent (%): mouse liver tissue, 200 mg/kg, versus model group
Method: 1. Method for Establishment of an Ethionine-Induced Mouse Non-Alcoholic Fatty Liver Model and Method of Administration SPF-grade male ICR mice (20-22 g), after acclimatization, were randomly divided into 5 groups: a blank control group, an ethionine-induced model group, a 200 mg/kg (+)IMM-H014 group, a 200 mg/kg (−)IMM-H014 group, and a 200 mg/kg (±)IMM-H014 group, 5 mice in each group. Three days before the establishment of the models, each administration group was intragastrically administrated once per day, and it was totally administrated three times. The animals in the blank control group and the model group were intragastrically administrated with the same dose of physiological saline. Each administration dose was 10 mL/kg. One hour after the last administration, the mice in each group were intragastrically administrated with 250 mg/kg ethionine once. The administration dose was 20 ml/kg. The mice were in fasting but not in water deprivation for 24 h and then the animals waited for further treatment. 2. Determinations of the Contents of Triglyceride and Cholesterol in Liver Tissues The mice were subjected to thoracotomy to take out the livers which were washed with physiological saline at 4° C. A part of the liver tissues were prepared into a 10% liver tissue homogenate with a lysate and an electric homogenizer, wherein one part was measured according to the measurement methods of a triglyceride kit and a cholesterol kit to determine the triglyceride and cholesterol therein, and the other part was measured with a BCA protein quantification kit to determine the content of proteins therein. The triglyceride and cholesterol in the liver tissues were subjected to protein corrections. By adopting SPSS software, the data each were presented as a number mean±standard deviation (x±SD).

[4] = test system: HepG2 cells; assay: Toxicity to HepG2 cells (cell survival rate, 48 h); format: cell-based, human; conditions: HepG2, 10 μM, not significantly toxic
Excerpt: The concentration was utilized to investigate the protective effects on APAP injured hepatocytes.
The concentration was utilized to investigate the protective effects on CCl4 injured hepatocytes.

[5] = test system: ConA-induced acute immune liver injuries; assay: ConA-induced mouse acute immune liver injury model; format: in vivo; conditions: mouse serum; for ALT (U/L) / AST (U/L) / LDH (U/L): 200 mg/kg intragastric once a day x3, 20 mg/kg ConA tail vein, n = 10; for ALT reduction percent (%) / AST reduction percent (%) / LDH reduction percent (%): 200 mg/kg, versus ConA model group
Method: 1. Method for Establishment of a ConA-Induced Mouse Acute Immune Liver Injury Model and Method of Administration SPF-grade male ICR mice (20-22 g), after acclimatization, were randomly divided into 5 groups: a blank control group, a ConA-induced model group, a 200 mg/kg (+)IMM-H014 group, a 200 mg/kg (−)IMM-H014 group, and a 200 mg/kg (±)IMM-H014 group, 10 mice in each group. Each administration group was intragastrically administrated once a day, and it was totally administrated three times. The blank control group and the model group were intragastrically administrated with the same dose of physiological saline. At 2 hours after the last administration, the mice in each group except the blank control group, were injected once with 20 mg/kg ConA in the tail vein, and each administration dose was 10 ml/kg. The mice were in fasting but not in water deprivation for 16 h and then the animals waited for further treatment. 2. Determination of Biochemical Indexes The mice were decapitated and blood was taken, and the blood samples were kept still at room temperature for 2 h and centrifuged at 4000 rpm for 10 min, to separate the serum. The ALT, AST and LDH contents in the serum were detected with a full-automatic biochemical analyzer. The data each were presented as a number mean±standard deviation (x±SD).

COC(=O)c1cc(OC)c2c(c1-c1c(CN3CCOCC3)cc(OC)c3c1OCO3)OCO2 [(+)IMM-H014]
Survival rates (%) ([1]; 0.6% CCl4, 24 h, MTT): 87.32%
OD Mean ± SD ([1]; 0.6% CCl4, 24 h, MTT, 570 nm): 0.799 ± 0.014
Cell survival rate increase (%) [1]: 12.59%
LDH level in the cell culture supernatant [2]: could reduce the LDH levels
Survival rates (%) [2]: 54.58%
OD Mean ± SD [2]: 0.489 ± 0.098
Cell survival rate increase (%) [2]: 41.4% and 42.4%
TC (mmol/gprot) [3]: 0.065 ± 0.022 mmol/gprot
TG (mmol/gprot) [3]: 0.235 ± 0.070 mmol/gprot
Percent TG reduction (%) [3]: 7.1%
TC reduction percent (%) [3]: 27.2%
cell survival rate [4]: 90%
ALT (U/L) [5]: 44.4 ± 29.1 U/L
AST (U/L) [5]: 514.3 ± 310.7 U/L
LDH (U/L) [5]: 2680.0 ± 1190.8 U/L
ALT reduction percent (%) [5]: 95.3%
AST reduction percent (%) [5]: 44.8%
LDH reduction percent (%) [5]: 27.6%

COC(=O)c1cc(OC)c2c(c1-c1c(CN3CCOCC3)cc(OC)c3c1OCO3)OCO2 (racemic) [(±)IMM-H014]
Survival rates (%) ([1]; 0.6% CCl4, 24 h, MTT): 92.09%
Cell survival rate increase (%) [1]: 18.74%
LDH level in the cell culture supernatant [2]: could reduce the LDH levels
Survival rates (%) [2]: 50.63%
OD Mean ± SD [2]: 0.453 ± 0.032
Cell survival rate increase (%) [2]: 32.1%
TC (mmol/gprot) [3]: 0.063 ± 0.013 mmol/gprot
TG (mmol/gprot) [3]: 0.110 ± 0.005 mmol/gprot
Percent TG reduction (%) [3]: 56.6%
TC reduction percent (%) [3]: 30.0%
cell survival rate [4]: 90%
ALT (U/L) [5]: 107.0 ± 108.7 U/L
AST (U/L) [5]: 725.0 ± 417.3 U/L
LDH (U/L) [5]: 3466.7 ± 1772.4 U/L
ALT reduction percent (%) [5]: 88.6%
AST reduction percent (%) [5]: 22.2%
LDH reduction percent (%) [5]: 6.4%

COC(=O)c1cc(OC)c2c(c1-c1c(CN3CCOCC3)cc(OC)c3c1OCO3)OCO2 [(−)IMM-H014]
Survival rates (%) ([1]; 0.6% CCl4, 24 h, MTT): 104.44%
Cell survival rate increase (%) [1]: 34.66%
LDH level in the cell culture supernatant [2]: could reduce the LDH levels
Survival rates (%) [2]: 67.01%
OD Mean ± SD [2]: 0.600 ± 0.054^###&
Cell survival rate increase (%) [2]: 74.8%
TC (mmol/gprot) [3]: 0.061 ± 0.013 mmol/gprot
TG (mmol/gprot) [3]: 0.154 ± 0.040 mmol/gprot
Percent TG reduction (%) [3]: 39.0%
TC reduction percent (%) [3]: 32.4%
Percent TG reduction (%) ([3]; listed as (−) IMM-H014, 200 mg/kg): 39.0%
cell survival rate [4]: 90%
ALT (U/L) [5]: 25.6 ± 17.4^###& U/L
AST (U/L) [5]: 252.9 ± 233.5^##& U/L
LDH (U/L) [5]: 1690.0 ± 929.3^##& U/L
ALT reduction percent (%) [5]: 97.3%
AST reduction percent (%) [5]: 72.9%
LDH reduction percent (%) [5]: 54.4%
